Measurements from PubChem BioAssay AID1918942 (Molecular Pharmacology Branch, DTP, NCI, 2023).

System: 743489-274-T-PDC complex spheroid viability
Experiment: Anticancer human tumor 743489-274-T-PDC patient-derived renal cell carcinoma cell line growth inhibition
Details: for IC50: curve of first compound; for viability, T/C: stronger effect = lower value
Method in brief: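 Complex spheroids of tumor cells with HUVEC and human MSCs, exposed to iadademstat combined with other agents. Each agent tested in half-log steps from near clinical Cmax (else 10 microM top), DMSO ≤0.25%.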

[1] = second compound 0.1 µM, first compound 0.0316 µM
[2] = second compound 0.1 µM, first compound 0.1 µM
[3] = second compound 0.1 µM, first compound 0.316 µM
[4] = second compound 0.1 µM, first compound 1 µM
[5] = second compound 0.1 µM, first compound 3.16 µM
[6] = second compound 0.1 µM, first compound 10 µM
[7] = second compound 0.316 µM, first compound 0.0316 µM
[8] = second compound 0.316 µM, first compound 0.1 µM
[9] = second compound 0.316 µM, first compound 0.316 µM
[10] = second compound 0.316 µM, first compound 1 µM
[11] = second compound 0.316 µM, first compound 3.16 µM
[12] = second compound 0.316 µM, first compound 10 µM
[13] = second compound 1 µM, first compound 0.0316 µM
[14] = second compound 1 µM, first compound 0.1 µM
[15] = second compound 1 µM, first compound 0.316 µM
[16] = second compound 1 µM, first compound 1 µM
[17] = second compound 1 µM, first compound 3.16 µM
[18] = second compound 1 µM, first compound 10 µM
[19] = second compound 3.16 µM, first compound 0.0316 µM
[20] = second compound 3.16 µM, first compound 0.1 µM
[21] = second compound 3.16 µM, first compound 0.316 µM
[22] = second compound 3.16 µM, first compound 1 µM
[23] = second compound 3.16 µM, first compound 3.16 µM
[24] = second compound 3.16 µM, first compound 10 µM
[25] = second compound 10 µM, first compound 0.0316 µM
[26] = second compound 10 µM, first compound 0.1 µM
[27] = second compound 10 µM, first compound 0.316 µM
[28] = second compound 10 µM, first compound 1 µM
[29] = second compound 10 µM, first compound 3.16 µM
[30] = second compound 10 µM, first compound 10 µM
[31] = second compound 0.1 µM, first compound 0.00316 µM
[32] = second compound 0.1 µM, first compound 0.01 µM
[33] = second compound 0.316 µM, first compound 0.00316 µM
[34] = second compound 0.316 µM, first compound 0.01 µM
[35] = second compound 1 µM, first compound 0.00316 µM
[36] = second compound 1 µM, first compound 0.01 µM
[37] = second compound 3.16 µM, first compound 0.00316 µM
[38] = second compound 3.16 µM, first compound 0.01 µM
[39] = second compound 10 µM, first compound 0.00316 µM
[40] = second compound 10 µM, first compound 0.01 µM
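Note: spheroids exposed to compounds for 7 days before readout.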
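Throughout, for viability, T/C: 100% = DMSO vehicle control wells.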

SMILES	IC50 (second compound 0.1 µM) [nM]	IC50 (second compound 0.316 µM) [nM]	IC50 (second compound 1 µM) [nM]	IC50 (second compound 3.16 µM) [nM]	IC50 (second compound 10 µM) [nM]	viability, T/C [1] [%]	viability, T/C [2] [%]	viability, T/C [3] [%]	viability, T/C [4] [%]	viability, T/C [7] [%]	viability, T/C [8] [%]	viability, T/C [9] [%]	viability, T/C [10] [%]	viability, T/C [13] [%]	viability, T/C [14] [%]	viability, T/C [15] [%]	viability, T/C [16] [%]	viability, T/C [19] [%]	viability, T/C [20] [%]	viability, T/C [21] [%]	also measured
CC(C)c1c(-c2ccccc2)nc2c(C#N)c[nH]n2c1=O + NC1CCC(NC2CC2c2ccccc2)CC1	> 10000	> 10000	> 10000	> 10000	> 10000	97.2	115	104	127	106	99.3	126	108	119	120	100	111	111	111	114	viability, T/C [5]: 99.9%; viability, T/C [6]: 104%; viability, T/C [11]: 108%; viability, T/C [12]: 104%; viability, T/C [17]: 105%; viability, T/C [18]: 114%; viability, T/C [22]: 119%; viability, T/C [23]: 98.8%; viability, T/C [24]: 112%; viability, T/C [25]: 118%; viability, T/C [26]: 121%; viability, T/C [27]: 130%; viability, T/C [28]: 121%; viability, T/C [29]: 120%; viability, T/C [30]: 104%
CC1COCCN1c1cc(-c2ccnn2C)c2ccnc(-c3ccn[nH]3)c2n1 (stereo not given) + NC1CCC(NC2CC2c2ccccc2)CC1	> 1000	> 1000	> 1000	> 1000	> 1000	107	92.6	81.6	64	114	87.1	83	62.7	118	98	90.2	59.5	110	101	84.5	viability, T/C [31]: 111%; viability, T/C [32]: 109%; viability, T/C [33]: 126%; viability, T/C [34]: 110%; viability, T/C [35]: 109%; viability, T/C [36]: 128%; viability, T/C [37]: 122%; viability, T/C [38]: 138%; viability, T/C [22]: 76.1%; viability, T/C [39]: 131%; viability, T/C [40]: 117%; viability, T/C [25]: 129%; viability, T/C [26]: 105%; viability, T/C [27]: 88.9%; viability, T/C [28]: 71.7%
COc1ccc([C@@H](O)c2cc(-c3ncnc4cc(N5CCOCC5)ccc34)c(F)cc2Cl)nn1 + NC1CCC(NC2CC2c2ccccc2)CC1	2810	2310	1670	1850	1900	110	109	87.2	70.9	125	121	99	65.9	125	112	101	61.6	124	123	92.9	viability, T/C [5]: 47.1%; viability, T/C [6]: 34.9%; viability, T/C [11]: 46.9%; viability, T/C [12]: 18.6%; viability, T/C [17]: 34.1%; viability, T/C [18]: 19.4%; viability, T/C [22]: 62.2%; viability, T/C [23]: 41.6%; viability, T/C [24]: 17%; viability, T/C [25]: 117%; viability, T/C [26]: 120%; viability, T/C [27]: 102%; viability, T/C [28]: 66.1%; viability, T/C [29]: 38.2%; viability, T/C [30]: 26.4%
O=C(C=Cn1cnc(-c2cc(C(F)(F)F)cc(C(F)(F)F)c2)n1)NNc1cnccn1 + NC1CCC(NC2CC2c2ccccc2)CC1	> 1000	> 1000	> 1000	> 1000	> 1000	113	114	102	96	131	106	97.8	81.3	130	113	91.6	81.8	140	116	91.8	viability, T/C [31]: 102%; viability, T/C [32]: 112%; viability, T/C [33]: 95%; viability, T/C [34]: 107%; viability, T/C [35]: 103%; viability, T/C [36]: 119%; viability, T/C [37]: 112%; viability, T/C [38]: 121%; viability, T/C [22]: 82.5%; viability, T/C [39]: 120%; viability, T/C [40]: 124%; viability, T/C [25]: 126%; viability, T/C [26]: 113%; viability, T/C [27]: 102%; viability, T/C [28]: 95.9%
